Laboratory results: ChEMBL document CHEMBL4665642, “Anticancer profile of newly synthesized BRAF inhibitors possess 5-(pyrimidin-4-yl)imidazo[2,1-b]thiazole scaffold” (Bioorg Med Chem, 2019)

Legend:
Format in all cases: functional
Conditions in all cases: read-out: Activity
Hs-578T = assay: Cytotoxicity against human HS-578T cells assessed as cell viability at 10 uM incubated for 48 hrs by sulforhodamine B assay relative to control
MDA-MB-231 = assay: Cytotoxicity against human MDA-MB-231 cells assessed as cell viability at 10 uM incubated for 48 hrs by sulforhodamine B assay relative to control
MCF7 = assay: Cytotoxicity against human MCF7 cells assessed as cell viability at 10 uM incubated for 48 hrs by sulforhodamine B assay relative to control
DU-145 = assay: Cytotoxicity against human DU-145 cells assessed as cell viability at 10 uM incubated for 48 hrs by sulforhodamine B assay relative to control
PC-3 = assay: Cytotoxicity against human PC-3 cells assessed as cell viability at 10 uM incubated for 48 hrs by sulforhodamine B assay relative to control
UO-31 = assay: Cytotoxicity against human UO-31 cells assessed as cell viability at 10 uM incubated for 48 hrs by sulforhodamine B assay relative to control
TK-10 = assay: Cytotoxicity against human TK-10 cells assessed as cell viability at 10 uM incubated for 48 hrs by sulforhodamine B assay relative to control
SN12C = assay: Cytotoxicity against human SN12C cells assessed as cell viability at 10 uM incubated for 48 hrs by sulforhodamine B assay relative to control
RXF 393 = assay: Cytotoxicity against human RXF 393 cells assessed as cell viability at 10 uM incubated for 48 hrs by sulforhodamine B assay relative to control
CAKI-1 = assay: Cytotoxicity against human CAKI-1 cells assessed as cell viability at 10 uM incubated for 48 hrs by sulforhodamine B assay relative to control
ACHN = assay: Cytotoxicity against human ACHN cells assessed as cell viability at 10 uM incubated for 48 hrs by sulforhodamine B assay relative to control
786-0 = assay: Cytotoxicity against human 786-0 cells assessed as cell viability at 10 uM incubated for 48 hrs by sulforhodamine B assay relative to control
OVCAR-8 = assay: Cytotoxicity against human OVCAR-8 cells assessed as cell viability at 10 uM incubated for 48 hrs by sulforhodamine B assay relative to control
OVCAR-5 = assay: Cytotoxicity against human OVCAR-5 cells assessed as cell viability at 10 uM incubated for 48 hrs by sulforhodamine B assay relative to control
OVCAR-3 = assay: Cytotoxicity against human OVCAR-3 cells assessed as cell viability at 10 uM incubated for 48 hrs by sulforhodamine B assay relative to control
IGROV-1 = assay: Cytotoxicity against human IGROV-1 cells assessed as cell viability at 10 uM incubated for 48 hrs by sulforhodamine B assay relative to control
UACC-257 = assay: Cytotoxicity against human UACC-257 cells assessed as cell viability at 10 uM incubated for 48 hrs by sulforhodamine B assay relative to control
SK-MEL-5 = assay: Cytotoxicity against human SK-MEL-5 cells assessed as cell viability at 10 uM incubated for 48 hrs by sulforhodamine B assay relative to control
SK-MEL-28 = assay: Cytotoxicity against human SK-MEL-28 cells assessed as cell viability at 10 uM incubated for 48 hrs by sulforhodamine B assay relative to control
SK-MEL-2 = assay: Cytotoxicity against human SK-MEL-2 cells assessed as cell viability at 10 uM incubated for 48 hrs by sulforhodamine B assay relative to control
M14 = assay: Cytotoxicity against human M14 cells assessed as cell viability at 10 uM incubated for 48 hrs by sulforhodamine B assay relative to control
MOLT-4 = assay: Cytotoxicity against human MOLT-4 cells assessed as cell viability at 10 uM incubated for 48 hrs by sulforhodamine B assay relative to control
RPMI-8226 = assay: Cytotoxicity against human RPMI-8226 cells assessed as cell viability at 10 uM incubated for 48 hrs by sulforhodamine B assay relative to control
SR = assay: Cytotoxicity against human SR cells assessed as cell viability at 10 uM incubated for 48 hrs by sulforhodamine B assay relative to control
A549 = assay: Cytotoxicity against human A549 cells assessed as cell viability at 10 uM incubated for 48 hrs by sulforhodamine B assay relative to control
HOP-62 = assay: Cytotoxicity against human HOP-62 cells assessed as cell viability at 10 uM incubated for 48 hrs by sulforhodamine B assay relative to control
HOP-92 = assay: Cytotoxicity against human HOP-92 cells assessed as cell viability at 10 uM incubated for 48 hrs by sulforhodamine B assay relative to control
NCI-H226 = assay: Cytotoxicity against human NCI-H226 cells assessed as cell viability at 10 uM incubated for 48 hrs by sulforhodamine B assay relative to control
NCI-H23 = assay: Cytotoxicity against human NCI-H23 cells assessed as cell viability at 10 uM incubated for 48 hrs by sulforhodamine B assay relative to control
NCI-H322M = assay: Cytotoxicity against human NCI-H322M cells assessed as cell viability at 10 uM incubated for 48 hrs by sulforhodamine B assay relative to control
COLO 205 = assay: Cytotoxicity against human COLO 205 cells assessed as cell viability at 10 uM incubated for 48 hrs by sulforhodamine B assay relative to control
HCC 2998 = assay: Cytotoxicity against human HCC 2998 cells assessed as cell viability at 10 uM incubated for 48 hrs by sulforhodamine B assay relative to control
HCT-116 = assay: Cytotoxicity against human HCT-116 cells assessed as cell viability at 10 uM incubated for 48 hrs by sulforhodamine B assay relative to control
HCT-15 = assay: Cytotoxicity against human HCT-15 cells assessed as cell viability at 10 uM incubated for 48 hrs by sulforhodamine B assay relative to control
HCT-29 = assay: Cytotoxicity against human […] cells assessed as cell viability at 10 uM incubated for 48 hrs by sulforhodamine B assay relative to control
SF-295 = assay: Cytotoxicity against human SF-295 cells assessed as cell viability at 10 uM incubated for 48 hrs by sulforhodamine B assay relative to control
SF-539 = assay: Cytotoxicity against human SF-539 cells assessed as cell viability at 10 uM incubated for 48 hrs by sulforhodamine B assay relative to control
SNB-19 = assay: Cytotoxicity against human SNB-19 cells assessed as cell viability at 10 uM incubated for 48 hrs by sulforhodamine B assay relative to control
SNB-75 = assay: Cytotoxicity against human SNB-75 cells assessed as cell viability at 10 uM incubated for 48 hrs by sulforhodamine B assay relative to control
U-251 = assay: Cytotoxicity against human U-251 cells assessed as cell viability at 10 uM incubated for 48 hrs by sulforhodamine B assay relative to control
LOX IMVI = assay: Cytotoxicity against human LOX IMVI cells assessed as cell viability at 10 uM incubated for 48 hrs by sulforhodamine B assay relative to control

SMILES: O=S(=O)(NCCNc1nccc(-c2c(-c3cccc(F)c3)nc3sccn23)n1)c1ccc(Cl)cc1
- viability at 10 µM (Hs-578T): 72.5%
- viability at 10 µM (MDA-MB-231): 91.1%
- viability at 10 µM (MCF7): 24.7%
- viability at 10 µM (DU-145): 54.2%
- viability at 10 µM (PC-3): 56.9%
- viability at 10 µM (UO-31): 23.9%
- viability at 10 µM (TK-10): 88.5%
- viability at 10 µM (SN12C): 48.7%
- viability at 10 µM (RXF 393): 69%
- viability at 10 µM (CAKI-1): 41.1%
- viability at 10 µM (ACHN): 35.7%
- viability at 10 µM (786-0): 51.3%
- viability at 10 µM (OVCAR-8): 53.6%
- viability at 10 µM (OVCAR-5): 93.3%
- viability at 10 µM (OVCAR-3): 65.4%
- viability at 10 µM (IGROV-1): 15.8%
- viability at 10 µM (UACC-257): 88.7%
- viability at 10 µM (SK-MEL-5): 36.5%
- viability at 10 µM (SK-MEL-28): 74.7%
- viability at 10 µM (SK-MEL-2): 79.8%
- viability at 10 µM (M14): 56.6%
- viability at 10 µM (MOLT-4): 46.8%
- viability at 10 µM (RPMI-8226): 59.5%
- viability at 10 µM (SR): 40.6%
- viability at 10 µM (A549): 32.1%
- viability at 10 µM (HOP-62): 82.6%
- viability at 10 µM (HOP-92): 76.6%
- viability at 10 µM (NCI-H226): 49.3%
- viability at 10 µM (NCI-H23): 74.9%
- viability at 10 µM (NCI-H322M): 65.5%
- viability at 10 µM (COLO 205): 40%
- viability at 10 µM (HCC 2998): 83.4%
- viability at 10 µM (HCT-116): 34%
- viability at 10 µM (HCT-15): 31.9%
- viability at 10 µM (HCT-29): 36%
- viability at 10 µM (SF-295): 63.7%
- viability at 10 µM (SF-539): 82.5%
- viability at 10 µM (SNB-19): 66.5%
- viability at 10 µM (SNB-75): 78.9%
- viability at 10 µM (U-251): 55.2%
- viability at 10 µM (LOX IMVI): 43.6%

SMILES: O=S(=O)(NCCNc1nccc(-c2c(-c3cccc(F)c3)nc3sccn23)n1)c1cccc(F)c1
- viability at 10 µM (Hs-578T): 78.3%
- viability at 10 µM (MDA-MB-231): 79%
- viability at 10 µM (MCF7): 30.8%
- viability at 10 µM (DU-145): 65.1%
- viability at 10 µM (PC-3): 67.2%
- viability at 10 µM (UO-31): 30.2%
- viability at 10 µM (TK-10): 88%
- viability at 10 µM (SN12C): 55.3%
- viability at 10 µM (RXF 393): 80.2%
- viability at 10 µM (CAKI-1): 44.6%
- viability at 10 µM (ACHN): 39.9%
- viability at 10 µM (786-0): 63.9%
- viability at 10 µM (OVCAR-8): 60.1%
- viability at 10 µM (OVCAR-5): 100%
- viability at 10 µM (OVCAR-3): 76.7%
- viability at 10 µM (IGROV-1): 24.6%
- viability at 10 µM (UACC-257): 104%
- viability at 10 µM (SK-MEL-5): 53.5%
- viability at 10 µM (SK-MEL-28): 94.7%
- viability at 10 µM (SK-MEL-2): 81.8%
- viability at 10 µM (M14): 69.4%
- viability at 10 µM (MOLT-4): 57.8%
- viability at 10 µM (RPMI-8226): 66.8%
- viability at 10 µM (SR): 45.5%
- viability at 10 µM (A549): 42.1%
- viability at 10 µM (HOP-62): 83.5%
- viability at 10 µM (HOP-92): 88.2%
- viability at 10 µM (NCI-H226): 62.5%
- viability at 10 µM (NCI-H23): 83.4%
- viability at 10 µM (NCI-H322M): 77.1%
- viability at 10 µM (COLO 205): 45.1%
- viability at 10 µM (HCC 2998): 95.5%
- viability at 10 µM (HCT-116): 42.8%
- viability at 10 µM (HCT-15): 38.9%
- viability at 10 µM (HCT-29): 43.9%
- viability at 10 µM (SF-295): 80.6%
- viability at 10 µM (SF-539): 95.6%
- viability at 10 µM (SNB-19): 73%
- viability at 10 µM (SNB-75): 80%
- viability at 10 µM (U-251): 60.7%
- viability at 10 µM (LOX IMVI): 51.2%

SMILES: O=C(NCCCNc1nccc(-c2c(-c3cccc(F)c3)nc3sccn23)n1)c1ccc(F)cc1
- viability at 10 µM (Hs-578T): 83.2%
- viability at 10 µM (MDA-MB-231): 120%
- viability at 10 µM (MCF7): 71.9%
- viability at 10 µM (DU-145): 81.2%
- viability at 10 µM (PC-3): 76.2%
- viability at 10 µM (UO-31): 36.9%
- viability at 10 µM (TK-10): 95.9%
- viability at 10 µM (SN12C): 75.8%
- viability at 10 µM (RXF 393): 77.3%
- viability at 10 µM (CAKI-1): 73%
- viability at 10 µM (ACHN): 74.9%
- viability at 10 µM (786-0): 62.5%
- viability at 10 µM (OVCAR-8): 68.4%
- viability at 10 µM (OVCAR-5): 141%
- viability at 10 µM (OVCAR-3): 74.1%
- viability at 10 µM (IGROV-1): 49.4%
- viability at 10 µM (UACC-257): 116%
- viability at 10 µM (SK-MEL-5): 67.8%
- viability at 10 µM (SK-MEL-28): 106%
- viability at 10 µM (SK-MEL-2): 95%
- viability at 10 µM (M14): 85.3%
- viability at 10 µM (MOLT-4): 44.5%
- viability at 10 µM (RPMI-8226): 87.2%
- viability at 10 µM (SR): 99.8%
- viability at 10 µM (A549): 76.3%
- viability at 10 µM (HOP-62): 119%
- viability at 10 µM (HOP-92): 111%
- viability at 10 µM (NCI-H226): 69%
- viability at 10 µM (NCI-H23): 105%
- viability at 10 µM (NCI-H322M): 96.3%
- viability at 10 µM (COLO 205): 64.7%
- viability at 10 µM (HCC 2998): 112%
- viability at 10 µM (HCT-116): 62.5%
- viability at 10 µM (HCT-15): 65.2%
- viability at 10 µM (HCT-29): 60.8%
- viability at 10 µM (SF-295): 97.2%
- viability at 10 µM (SF-539): 99.4%
- viability at 10 µM (SNB-19): 89%
- viability at 10 µM (SNB-75): 83.9%
- viability at 10 µM (U-251): 90.6%
- viability at 10 µM (LOX IMVI): 79.5%
